Among the data in patent publication US20090149520A1, “OXAZOLIDINONES CONTAINING OXINDOLES AS ANTIBACTERIAL AGENTS” (PFIZER INC, priority 2006, published 2009) are MIC values, retold here.

Type in all cases: cell-based
The test system of one assay is S. pneumoniae SV1 SP-3. Kind of assay: in vitro antibacterial activity MIC, S. pneumoniae. The following applies: Streptococcus pneumoniae, SV1SP3; strain SV1 SP-3; read-out: MICs S. pneumoniae SV1 SP-3. The text has this:
(§1) The in vitro antibacterial activity of the compounds of the present invention may be assessed by following procedures recommended in (1) National Committee for Clinical Laboratory Standards (January 2003), Methods for dilution antimicrobial tests for bacteria that grow aerobically, Approved Standard (6th ed), M7-A6, NCCLS, Wayne, Pa.; (2) National Committee for Clinical Laboratory Standards (March 2001), Methods for antimicrobial susceptibility testing of anaerobic bacteria, Approved Standard (5th ed), M11-A4, NCCLS, Wayne, Pa.; (3) National Committee for Clinical Laboratory Standards (Jan. 2003), MIC testing supplemental tables, M100-S13 (for use with M7-A6), NCCLS, Wayne, Pa.; and (4) Murray P R, Baron E J, Jorgensen J H, et al. Manual of Clinical Microbiology (8th ed) Washington, D.C.: American Society for Microbiology Press, 2003. The antibacterial activity can be presented in the form of MIC value. The MIC value is the lowest concentration of drug, which prevented macroscopically visible growth under the conditions of the test.

Another assay concerns E. faecalis MGH-2 EF 1-1. The experiment in a line: in vitro antibacterial activity MIC, E. faecalis. The conditions noted are these: Enterococcus faecalis, MGH2EF11; strain MGH-2 EF 1-1; read-out: MICs E. faecalis MGH-2 EF 1-1.
Excerpt: as §1

The subject of another assay is S. aureus UC-76 SA-1. The experiment in a line: in vitro antibacterial activity MIC, S. aureus. The following applies: Staphylococcus aureus, UC76; strain UC-76 SA-1; read-out: MICs S. aureus UC-76 SA-1.
Excerpt: as §1

Values after ≈ are worked out from the molar mass of the structure shown.

For `CCN1C(=O)Cc2cc(N3C[C@H](Cn4ccnn4)OC3=O)ccc21` [Example 2], the MIC in the assay on S. pneumoniae SV1 SP-3 stood at 4 µg/mL (≈ 12.2 µM); with E. faecalis MGH-2 EF 1-1, 8 µg/mL (≈ 24.4 µM); with S. aureus UC-76 SA-1, 4 µg/mL (≈ 12.2 µM).

For `CC(C)N1C(=O)Cc2cc(N3C[C@H](Cn4ccnn4)OC3=O)ccc21` [Example 1, (R)-5-((1H-1,2,3-triazol-1-yl)methyl)-3-(1-isopropyl-2 oxoindolin-5-yl)oxazolidin-2-one], the MIC in the assay on S. pneumoniae SV1 SP-3, in the assay on E. faecalis MGH-2 EF 1-1 and in the assay with S. aureus UC-76 SA-1 was 8 µg/mL (≈ 23.4 µM) in each case.
